Measurements published in US10065963B2 (Incyte Corporation, priority 2015, dated 2018).
Where a name gives a salt, the structure may show the parent alone. Read-outs that look alike come from different tables or passages of the source.

Assays:
[1] = tested on: Phosphorylated Ribosomal Protein S6 (RPS6) in THP-1 cells; assay: THP-1 RPS6 ELISA assay; format: cell-based, human; details: 10 nM MCP-1, read-out: PI3Kγ_THP1_RPS6_ELISA IC50
[2] = target: PI3Kδ (p110δ/p85α) Recombinant Human Protein (Homo sapiens (Human), UniProt O00329); assay: PI3Kδ scintillation proximity assay; format: biochemical; details: 2 μM ATP, 20 μM PIP2
[3] = target: PI3Kγ (p110γ) Recombinant Human Protein (Homo sapiens (Human), UniProt P48736); assay: PI3K-γ scintillation proximity assay; format: biochemical; details: 2 μM ATP, 20 μM PIP2
[4] = Homo sapiens, THP-1, THP-1 cells

Sequence of PI3Kγ (p110γ) Recombinant Human Protein (P48736 whole entry): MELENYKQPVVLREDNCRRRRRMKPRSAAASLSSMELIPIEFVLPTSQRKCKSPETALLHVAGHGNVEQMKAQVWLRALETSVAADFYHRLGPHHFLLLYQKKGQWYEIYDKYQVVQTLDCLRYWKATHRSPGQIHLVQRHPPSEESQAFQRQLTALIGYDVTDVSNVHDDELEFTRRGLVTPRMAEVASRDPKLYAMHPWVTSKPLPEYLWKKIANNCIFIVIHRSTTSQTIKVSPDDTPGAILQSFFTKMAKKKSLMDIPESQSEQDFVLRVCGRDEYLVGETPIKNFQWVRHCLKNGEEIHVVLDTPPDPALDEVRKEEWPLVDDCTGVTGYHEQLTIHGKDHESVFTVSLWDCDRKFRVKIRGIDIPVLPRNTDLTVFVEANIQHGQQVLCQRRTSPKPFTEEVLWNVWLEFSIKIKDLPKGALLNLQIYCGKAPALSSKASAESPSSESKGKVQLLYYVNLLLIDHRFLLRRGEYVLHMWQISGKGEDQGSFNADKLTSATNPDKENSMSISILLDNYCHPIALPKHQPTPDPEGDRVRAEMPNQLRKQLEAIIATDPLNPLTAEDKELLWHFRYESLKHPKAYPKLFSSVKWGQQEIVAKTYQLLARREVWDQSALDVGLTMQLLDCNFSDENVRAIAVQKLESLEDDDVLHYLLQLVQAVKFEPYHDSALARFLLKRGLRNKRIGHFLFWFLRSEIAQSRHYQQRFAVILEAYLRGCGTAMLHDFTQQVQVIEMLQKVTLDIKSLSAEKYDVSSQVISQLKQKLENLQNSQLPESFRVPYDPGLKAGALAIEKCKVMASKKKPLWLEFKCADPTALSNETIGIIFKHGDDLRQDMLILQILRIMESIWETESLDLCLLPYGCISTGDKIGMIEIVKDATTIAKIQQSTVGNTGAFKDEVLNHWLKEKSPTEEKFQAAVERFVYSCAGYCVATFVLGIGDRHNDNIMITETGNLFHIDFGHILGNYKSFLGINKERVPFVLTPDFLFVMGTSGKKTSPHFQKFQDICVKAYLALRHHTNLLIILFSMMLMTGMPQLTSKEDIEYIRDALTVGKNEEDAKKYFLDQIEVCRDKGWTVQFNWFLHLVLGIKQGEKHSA
Sequence of PI3Kδ (p110δ/p85α) Recombinant Human Protein (O00329 whole entry): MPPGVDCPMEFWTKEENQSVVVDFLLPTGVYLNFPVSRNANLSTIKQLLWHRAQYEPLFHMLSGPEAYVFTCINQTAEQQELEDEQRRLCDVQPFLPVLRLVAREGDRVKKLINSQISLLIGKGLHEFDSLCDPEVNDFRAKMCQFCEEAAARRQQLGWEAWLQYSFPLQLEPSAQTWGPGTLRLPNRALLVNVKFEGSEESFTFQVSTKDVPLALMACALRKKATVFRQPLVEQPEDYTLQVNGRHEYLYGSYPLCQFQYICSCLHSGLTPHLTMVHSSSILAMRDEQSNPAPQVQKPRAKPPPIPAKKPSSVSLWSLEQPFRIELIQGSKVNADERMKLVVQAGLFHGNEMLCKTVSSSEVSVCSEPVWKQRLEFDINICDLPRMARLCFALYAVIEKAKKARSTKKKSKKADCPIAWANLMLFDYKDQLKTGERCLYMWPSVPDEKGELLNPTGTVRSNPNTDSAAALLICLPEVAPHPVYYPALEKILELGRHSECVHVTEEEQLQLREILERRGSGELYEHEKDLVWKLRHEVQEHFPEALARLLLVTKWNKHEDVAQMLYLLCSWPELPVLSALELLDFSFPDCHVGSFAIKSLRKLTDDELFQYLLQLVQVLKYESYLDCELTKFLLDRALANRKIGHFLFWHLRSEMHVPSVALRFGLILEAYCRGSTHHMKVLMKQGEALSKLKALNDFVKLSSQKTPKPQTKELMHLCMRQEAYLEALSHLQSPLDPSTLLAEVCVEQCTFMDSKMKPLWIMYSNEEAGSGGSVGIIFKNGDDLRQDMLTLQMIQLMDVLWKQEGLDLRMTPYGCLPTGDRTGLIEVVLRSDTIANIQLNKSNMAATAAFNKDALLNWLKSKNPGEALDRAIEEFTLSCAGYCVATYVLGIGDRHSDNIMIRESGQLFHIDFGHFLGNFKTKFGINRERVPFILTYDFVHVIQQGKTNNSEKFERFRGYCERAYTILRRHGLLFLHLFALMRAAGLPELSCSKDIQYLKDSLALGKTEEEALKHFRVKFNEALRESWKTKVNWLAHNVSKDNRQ
Sequence of PI3Kδ (p110δ/p85α) Recombinant Human Protein (P27986 whole entry partner): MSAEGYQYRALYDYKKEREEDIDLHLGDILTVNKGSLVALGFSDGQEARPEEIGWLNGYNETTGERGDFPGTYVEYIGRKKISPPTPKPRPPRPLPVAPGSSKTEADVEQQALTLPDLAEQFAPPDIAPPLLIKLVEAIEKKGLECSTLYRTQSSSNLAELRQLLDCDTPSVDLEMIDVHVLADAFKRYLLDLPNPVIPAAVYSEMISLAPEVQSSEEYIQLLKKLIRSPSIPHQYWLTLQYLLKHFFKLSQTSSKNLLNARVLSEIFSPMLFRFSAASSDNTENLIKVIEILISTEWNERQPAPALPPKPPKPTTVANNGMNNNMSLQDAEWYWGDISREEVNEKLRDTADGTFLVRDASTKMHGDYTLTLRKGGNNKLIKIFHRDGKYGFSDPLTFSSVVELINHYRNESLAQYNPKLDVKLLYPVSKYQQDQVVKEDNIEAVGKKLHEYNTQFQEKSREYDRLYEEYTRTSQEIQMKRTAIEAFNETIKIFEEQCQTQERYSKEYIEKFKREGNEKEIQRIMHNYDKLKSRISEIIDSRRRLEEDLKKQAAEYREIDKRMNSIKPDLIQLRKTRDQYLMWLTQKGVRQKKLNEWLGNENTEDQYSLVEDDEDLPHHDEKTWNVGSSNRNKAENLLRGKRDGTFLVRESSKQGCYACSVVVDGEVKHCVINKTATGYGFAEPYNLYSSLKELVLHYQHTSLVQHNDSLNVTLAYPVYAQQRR

| Compound | IC50 [1, 4] [µM] | IC50 [2] [µM] | IC50 [3] [µM] | IC50 ([1]; THP-1 cells) [µM] | IC50 ([1]; THP-1 cells, trifluoroacetate) [µM] |
| --- | --- | --- | --- | --- | --- |
| C[C@H](NC(=O)c1c(N)nn2cccnc12)c1cc(Cl)c2cncn2c1N1CCS(=O)(=O)[C@H](C)C1 [Example 31A, 2-Amino-N-((1S)-1-(8-chloro-5-(2-methyl-1,1-dioxidothiomorpholino)imidazo[1,5-a]pyridin-6-yl)ethyl)pyrazolo[1,5-a]pyrimidine-3-carboxamide trifluoroacetate salt] | < 0.5 | < 0.1 | < 0.1 |  |  |
| CC(NC(=O)c1c(N)nn2cccnc12)c1cc(Cl)c2cncn2c1N1CCS(=O)(=O)CC1 (stereo not drawn) [Example 36, 2-Amino-N-(1-[8-chloro-5-(1,1-dioxidothiomorpholin-4-yl)imidazo[1,5-a]pyridin-6-yl]ethyl)pyrazolo[1,5-a]pyrimidine-3-carboxamide trifluoroacetate salt] | < 0.5 | < 0.1 | < 0.1 |  |  |
| CC(NC(=O)c1c(N)nn2cccnc12)c1cc(Cl)c2cncn2c1N1CC[S+]([O-])CC1 (stereo not drawn) [Example 37, 2-Amino-N-(1-[8-chloro-5-(1-oxidothiomorpholin-4-yl)imidazo[1,5-a]pyridin-6-yl]ethyl)pyrazolo[1,5-a]pyrimidine-3-carboxamide trifluoroacetate salt] | < 0.5 | < 0.5 | < 0.1 |  |  |
| CC(NC(=O)c1c(N)nn2cccnc12)c1cc(Cl)c2cncn2c1N1CCS(=N)(=O)CC1 (stereo not drawn) [Example 39, 2-Amino-N-(1-[8-chloro-5-(1-imino-1-oxidothiomorpholin-4-yl)imidazo[1,5-a]pyridin-6-yl]ethyl)pyrazolo[1,5-a]pyrimidine-3-carboxamide] | < 0.5 | < 0.1 | < 0.1 |  |  |
| CC(NC(=O)c1c(N)nn2cccnc12)c1cc(Cl)c2cncn2c1N1CCS(=O)(=O)C(C)(C)C1 (stereo not drawn) [Example 40, 2-Amino-N-(1-[8-chloro-5-(2,2-dimethyl-1,1-dioxidothiomorpholin-4-yl)imidazo[1,5-a]pyridin-6-yl]ethyl)pyrazolo[1,5-a]pyrimidine-3-carboxamide trifluoroacetate salt] | < 0.5 | < 0.1 | < 0.1 |  |  |
| CCOc1c(C(C)NC(=O)c2c(N)nn3ccc(-c4cncc(OC)c4)nc23)cc(Cl)c2cn[nH]c12 (stereo not drawn) [Example 41, 2-Amino-N-(1-(4-chloro-7-ethoxy-1H-indazol-6-yl)ethyl)-5-(5-methoxypyridin-3-yl)pyrazolo[1,5-a]pyrimidine-3-carboxamide] | < 0.5 | < 0.1 | < 0.1 |  |  |
| CCOc1c(C(C)NC(=O)c2c(N)nn3ccc(-c4cncc(CO)c4)nc23)cc(Cl)c2cn[nH]c12 (stereo not drawn) [Example 42, 2-Amino-N-(1-(4-chloro-7-ethoxy-1H-indazol-6-yl)ethyl)-5-(5-(hydroxymethyl)pyridin-3-yl)pyrazolo[1,5-a]pyrimidine-3-carboxamide] | < 0.5 | < 0.1 | < 0.1 |  |  |
| CCOc1c(C(C)NC(=O)c2c(N)nn3ccc(-c4cncc(OC)c4)nc23)cc(Cl)c2c(Cl)n[nH]c12 (stereo not drawn) [Example 43, 2-Amino-N-(1-(3,4-dichloro-7-ethoxy-1H-indazol-6-yl)ethyl)-5-(5-methoxypyridin-3-yl)pyrazolo[1,5-a]pyrimidine-3-carboxamide trifluoroacetate salt] | < 0.5 | < 0.1 | < 0.1 |  |  |
| CCOc1c(C(C)NC(=O)c2c(N)nn3ccc(N4CCCCC4)nc23)cc(Cl)c2cn[nH]c12 (stereo not drawn) [Example 44, 2-Amino-N-(1-(4-chloro-7-ethoxy-1H-indazol-6-yl)ethyl)-5-(piperidin-1-yl)pyrazolo[1,5-a]pyrimidine-3-carboxamide trifluoroacetate salt] | > 1 | < 2 | < 0.5 |  |  |
| CCOc1c(C(C)NC(=O)c2c(N)nc3ccc(Cl)nn23)cc(Cl)c2cn[nH]c12 (stereo not drawn) [Example 45, 2-Amino-6-chloro-N-(1-(4-chloro-7-ethoxy-1H-indazol-6-yl)ethyl)imidazo[1,2-b]pyridazine-3-carboxamide] | < 0.5 | < 0.1 | < 0.1 |  |  |
| CCOc1c(C(C)NC(=O)c2c(N)nc3ccc(-c4cncc(CO)c4)nn23)cc(Cl)c2cn[nH]c12 (stereo not drawn) [Example 48, 2-Amino-N-(1-(4-chloro-7-ethoxy-1H-indazol-6-yl)ethyl)-6-(5-(hydroxymethyl)pyridin-3-yl)imidazo[1,2-b]pyridazine-3-carboxamide] | < 0.5 | < 0.1 | < 0.1 |  |  |
| CCOc1c(C(C)NC(=O)c2c(N)nc3ccc(-c4cncc(CO)c4)nn23)cc(Cl)c2c(Cl)n[nH]c12 (stereo not drawn) [Example 49, 2-Amino-N-(1-(3,4-dichloro-7-ethoxy-1H-indazol-6-yl)ethyl)-6-(5-(hydroxymethyl)pyridin-3-yl)imidazo[1,2-b]pyridazine-3-carboxamide] | < 0.5 | < 0.1 | < 0.1 |  |  |
| CCOc1c(C(C)NC(=O)c2c(N)nn3ccc(-c4cccnc4)nc23)cc(Cl)c2cn[nH]c12 (stereo not drawn) [Example 50, 2-Amino-N-[1-(4-chloro-7-ethoxy-1H-indazol-6-yl)ethyl]-5-pyridin-3-ylpyrazolo[1,5-a]pyrimidine-3-carboxamide bis(trifluoroacetate)] | < 0.5 | < 0.1 | < 0.1 |  |  |
| CCOc1c(C(C)NC(=O)c2c(N)nn3cccnc23)cc(Cl)c2c(Br)n[nH]c12 (stereo not drawn) [Example 52, 2-Amino-N-(1-(3-bromo-4-chloro-7-ethoxy-1H-indazol-6-yl)ethyl)pyrazolo[1,5-a]pyrimidine-3-carboxamide trifluoroacetate] | < 0.5 | < 0.5 | < 0.1 |  |  |
| CCOc1c(C(C)NC(=O)c2c(N)nn3cccnc23)cc(Cl)c2c(Br)n(CCO)nc12 (stereo not drawn) [Example 53, 2-Amino-N-(1-(3-bromo-4-chloro-7-ethoxy-2-(2-hydroxyethyl)-2H-indazol-6-yl)ethyl)pyrazolo[1,5-a]pyrimidine-3-carboxamide] | > 1 | < 2 | < 0.1 |  |  |
| CCOc1c(C(C)NC(=O)c2c(N)nn3cccnc23)cc(Cl)c2c(Br)nn(CCO)c12 (stereo not drawn) [Example 54, 2-Amino-N-(1-(3-bromo-4-chloro-7-ethoxy-1-(2-hydroxyethyl)-1H-indazol-6-yl)ethyl)pyrazol[1,5-a]pyrimidine-3-carboxamide trifluoroacetate] |  | < 0.1 | < 0.1 | > 1 |  |
| CC(NC(=O)c1c(N)nn2cccnc12)c1cc(Cl)c2c(C#N)n[nH]c2c1-c1ccccc1 (stereo not drawn) [Example 55, 2-Amino-N-(1-(4-chloro-3-cyano-7-phenyl-1H-indazol-6-yl)ethyl)pyrazolo[1,5-a]pyrimidine-3-carboxamide trifluoroacetate] | > 1 | < 2 | < 0.1 |  |  |
| CC(NC(=O)c1c(N)nn2cccnc12)c1cc(Cl)c2ccnn2c1N1CCC(C#N)CC1 (stereo not drawn) [Example 56, 2-Amino-N-(1-(4-chloro-7-(4-cyanopiperidin-1-yl)pyrazolo[1,5-a]pyridin-6-yl)ethyl)pyrazolo[1,5-a]pyrimidine-3-carboxamide trifluoroacetate] | < 0.5 | < 0.1 | < 0.1 |  |  |

The next lines start with the values.

| IC50 [1, 4] [µM] | IC50 [2] [µM] | IC50 [3] [µM] | IC50 ([1]; THP-1 cells) [µM] | IC50 ([1]; THP-1 cells, trifluoroacetate) [µM] | Compound |
| --- | --- | --- | --- | --- | --- |
| < 0.5 | < 0.5 | < 0.1 |  |  | CC(NC(=O)c1c(N)nn2cccnc12)c1cc(Cl)c2cncn2c1N1CCCC(O)(C(F)(F)F)C1 (single isomer, unassigned) [Example 78A, 2-Amino-N-(1-{8-chloro-5-[3-hydroxy-3-(trifluoromethyl)piperidin-1-yl]imidazo[1,5-a]pyridin-6-yl}ethyl)pyrazolo[1,5-a]pyrimidine-3-carboxamide trifluoroacetate] |
|  | < 0.1 | < 0.1 | < 0.5 |  | CC(NC(=O)c1c(N)nn2cccnc12)c1cc(Cl)c2cncn2c1N1CCCC(O)(C(F)(F)F)C1 (single isomer, unassigned) [Example 78B, 2-Amino-N-(1-{8-chloro-5-[3-hydroxy-3-(trifluoromethyl)piperidin-1-yl]imidazo[1,5-a]pyridin-6-yl}ethyl)pyrazolo[1,5-a]pyrimidine-3-carboxamide trifluoroacetate] |
| < 0.5 | < 0.5 | < 0.1 |  |  | CC(NC(=O)c1c(N)nn2cccnc12)c1cc(Cl)c2cn[nH]c2c1N1CCC(O)C1 (single isomer, unassigned) [Example 90B, 2-Amino-N-{1-[4-chloro-7-(3-hydroxypyrrolidin-1-yl)-2H-indazol-6-yl]ethyl}pyrazolo[1,5-a]pyrimidine-3-carboxamide bis(trifluoroacetate)] |
| < 1 | < 0.5 | < 0.1 |  |  | CNC(=O)C1CCN(c2c(C(C)NC(=O)c3c(N)nn4cccnc34)cc(Cl)c3cn[nH]c23)C1 (single isomer, unassigned) [Example 103A, 2-Amino-N-[1-(4-chloro-7-{3-[(methylamino)carbonyl]pyrrolidin-1-yl}-2H-indazol-6-yl)ethyl]pyrazolo[1,5-a]pyrimidine-3-carboxamide trifluoroacetate] |
|  | < 0.5 | < 0.1 |  | < 0.5 | CNC(=O)C1CCN(c2c(C(C)NC(=O)c3c(N)nn4cccnc34)cc(Cl)c3cn[nH]c23)C1 (single isomer, unassigned) [Example 103B, 2-Amino-N-[1-(4-chloro-7-{3-[(methylamino)carbonyl]pyrrolidin-1-yl}-2H-indazol-6-yl)ethyl]pyrazolo[1,5-a]pyrimidine-3-carboxamide trifluoroacetate] |
| < 0.5 | < 0.1 | < 0.1 |  |  | CC(NC(=O)c1c(N)nn2cccnc12)c1cc(Cl)c2cncn2c1N1CCS(=O)(=O)CC1C (stereo not drawn) [Example 38B, 2-Amino-N-(1-[8-chloro-5-(3-methyl-1,1-dioxidothiomorpholin-4-yl)imidazo[1,5-a]pyridin-6-yl]ethyl)pyrazolo[1,5-a]pyrimidine-3-carboxamide trifluoroacetate salt] |
